We go through five compounds from PMC6886721 (Journal of medicinal chemistry, 2019).

A short description of data set [1]: RP-HPLC temperature profiling, self-association. It is filed as physicochemical. The following applies: temperature at which maximum retention time is observed over 5–77 °C, Zorbax 300 SB-C8, 0.5% acetonitrile/min, 0.30 mL/min, TFA pH 2.
Data set [2] can be described thus: Circular dichroism, helical structure. It is filed as physicochemical. The following applies: for [θ]222, aqueous pH 7 / [θ]222, 50% TFE: CD, 222 nm; for [θ]222, aqueous pH 7 / [θ]222, 50% TFE / % helix, aqueous pH 7: 25 °C; for [θ]222, aqueous pH 7: 100 mM KCl, 50 mM Na2HPO4/NaH2PO4, pH 7.0; for [θ]222, 50% TFE: pH 7.0 buffer containing 50% TFE; for % helix induced: increase in molar ellipticity (as a percentage) in the presence of 50% TFE; for % helix, aqueous pH 7: relative to the molar ellipticity of the peptide in 50% TFE. A general note: CD spectra are sensitive to the conformation of chiral molecules.

The next data set concerns human red blood cells. The data set can be described thus: Hemolytic activity. The data set is classed as cell-based. The following applies: for HC50: pH 7.4.

Where a SMILES comes first, the peptide text is derived from it. [ ]: non-standard residue; d: D form. Dab = NCC[C@H](N)C(=O)O; Dap = NC[C@H](N)C(=O)O

`CC(=O)N[C@H](CCCCN)C(=O)N[C@H](CC(C)C)C(=O)N[C@@H](CN)C(=O)N[C@H](CO)C(=O)N[C@H](CC(C)C)C(=O)N[C@H](CC(C)C)C(=O)N[C@@H](CN)C(=O)N[C@@H](C(=O)N[C@H](CC(C)C)C(=O)N[C@H](CO)C(=O)N[C@@H](CN)C(=O)N[C@H](C)C(=O)N[C@H](C)C(=O)N[C@H](C)C(=O)N[C@H](C)C(=O)N[C@H](C)C(=O)N[C@H](CC(C)C)C(=O)N[C@@H](CN)C(=O)N[C@@H](C(=O)N[C@H](CC(C)C)C(=O)N[C@H](CC(C)C)C(=O)N[C@@H](CN)C(=O)N[C@H](C)C(=O)N[C@H](CC(C)C)C(=O)N[C@H](CO)C(=O)N[C@@H](CN)C(N)=O)[C@H](C)O)[C@H](C)O` [D105(K13A/K16A)-(Lys^1-6 Dap-1)] (Ac-[dK][dL][Dap][dS][dL][dL][Dap][dT][dL][dS][Dap][dA][dA][dA][dA][dA][dL][Dap][dT][dL][dL][Dap][dA][dL][dS][Dap]-NH2): in data set [1], the Tp came out at 39.0 °C. Also, in data set [2], the “[θ]222, aqueous pH 7” value is 9577 mdeg cm^2/(dmol × res); the “[θ]222, 50% TFE” value is 18038 mdeg cm^2/(dmol × res); the “% helix induced” value is recorded as 47%; the “% helix, aqueous pH 7” value was found to be 53%.

Regarding `CC(=O)N[C@H](CCCCN)C(=O)N[C@H](CC(C)C)C(=O)N[C@@H](CCN)C(=O)N[C@H](CO)C(=O)N[C@H](CC(C)C)C(=O)N[C@H](CC(C)C)C(=O)N[C@@H](CCN)C(=O)N[C@@H](C(=O)N[C@H](CC(C)C)C(=O)N[C@H](CO)C(=O)N[C@@H](CCN)C(=O)N[C@H](C)C(=O)N[C@H](CCCCN)C(=O)N[C@H](C)C(=O)N[C@H](C)C(=O)N[C@H](CCCCN)C(=O)N[C@H](CC(C)C)C(=O)N[C@@H](CCN)C(=O)N[C@@H](C(=O)N[C@H](CC(C)C)C(=O)N[C@H](CC(C)C)C(=O)N[C@@H](CCN)C(=O)N[C@H](C)C(=O)N[C@H](CC(C)C)C(=O)N[C@H](CO)C(=O)N[C@H](CO)C(N)=O)[C@H](C)O)[C@H](C)O` [D102(Lys^1Ser^26-5 Dab-1)] (Ac-[dK][dL][Dab][dS][dL][dL][Dab][dT][dL][dS][Dab][dA][dK][dA][dA][dK][dL][Dab][dT][dL][dL][Dab][dA][dL][dS][dS]-NH2), in the data set on human red blood cells, the HC50 fold improvement is >177 and the HC50 – broadly, the concentration that lyses half of the red blood cells – was >2000 µg/mL.

Regarding `CC(=O)N[C@H](CCCCN)C(=O)N[C@H](CC(C)C)C(=O)N[C@@H](CCN)C(=O)N[C@H](CO)C(=O)N[C@H](CC(C)C)C(=O)N[C@H](CC(C)C)C(=O)N[C@@H](CCN)C(=O)N[C@@H](C(=O)N[C@H](CC(C)C)C(=O)N[C@H](CO)C(=O)N[C@@H](CCN)C(=O)N[C@H](C)C(=O)N[C@H](C)C(=O)N[C@H](C)C(=O)N[C@H](C)C(=O)N[C@H](C)C(=O)N[C@H](CC(C)C)C(=O)N[C@@H](CCN)C(=O)N[C@@H](C(=O)N[C@H](CC(C)C)C(=O)N[C@H](CC(C)C)C(=O)N[C@@H](CCN)C(=O)N[C@H](C)C(=O)N[C@H](CC(C)C)C(=O)N[C@H](CO)C(=O)N[C@@H](CCN)C(N)=O)[C@H](C)O)[C@H](C)O` [D86(K13A/K16A)-(Lys^1-6 Dab-1)] (Ac-[dK][dL][Dab][dS][dL][dL][Dab][dT][dL][dS][Dab][dA][dA][dA][dA][dA][dL][Dab][dT][dL][dL][Dab][dA][dL][dS][Dab]-NH2), the Tp in data set [1] came out at 31.0 °C. In addition, in data set [2], the “[θ]222, aqueous pH 7” value is on record as 2308 mdeg cm^2/(dmol × res); the “[θ]222, 50% TFE” value was 18731 mdeg cm^2/(dmol × res); the “% helix induced” value was 88%; the “% helix, aqueous pH 7” value worked out at 12%.

In turn, `CC(=O)N[C@H](CCCCN)C(=O)N[C@H](CC(C)C)C(=O)N[C@@H](CCN)C(=O)N[C@H](CO)C(=O)N[C@H](CC(C)C)C(=O)N[C@H](CC(C)C)C(=O)N[C@@H](CCN)C(=O)N[C@@H](C(=O)N[C@H](CC(C)C)C(=O)N[C@H](CO)C(=O)N[C@@H](CCN)C(=O)N[C@H](C)C(=O)N[C@H](CCCCN)C(=O)N[C@H](C)C(=O)N[C@H](C)C(=O)N[C@H](CCCCN)C(=O)N[C@H](CC(C)C)C(=O)N[C@@H](CCN)C(=O)N[C@@H](C(=O)N[C@H](CC(C)C)C(=O)N[C@H](CC(C)C)C(=O)N[C@@H](CCN)C(=O)N[C@H](C)C(=O)N[C@H](CC(C)C)C(=O)N[C@H](CO)C(=O)N[C@@H](CCN)C(N)=O)[C@H](C)O)[C@H](C)O` [D86(Lys^1-6 Dab-1)] (Ac-[dK][dL][Dab][dS][dL][dL][Dab][dT][dL][dS][Dab][dA][dK][dA][dA][dK][dL][Dab][dT][dL][dL][Dab][dA][dL][dS][Dab]-NH2) came in with a Tp in data set [1] of 5.0 °C. In the data set with human red blood cells, the HC50 fold improvement was >186 and the HC50 was >2000 µg/mL. Further, in data set [2], the “[θ]222, aqueous pH 7” value is recorded as 1769 mdeg cm^2/(dmol × res); the “[θ]222, 50% TFE” value is 27923 mdeg cm^2/(dmol × res); the “% helix induced” value worked out at 94%; the “% helix, aqueous pH 7” value is 6%.

As for `CC(=O)N[C@H](CCCCN)C(=O)N[C@H](CC(C)C)C(=O)N[C@@H](CN)C(=O)N[C@H](CO)C(=O)N[C@H](CC(C)C)C(=O)N[C@H](CC(C)C)C(=O)N[C@@H](CN)C(=O)N[C@@H](C(=O)N[C@H](CC(C)C)C(=O)N[C@H](CO)C(=O)N[C@@H](CN)C(=O)N[C@H](C)C(=O)N[C@H](CCCCN)C(=O)N[C@H](C)C(=O)N[C@H](C)C(=O)N[C@H](CCCCN)C(=O)N[C@H](CC(C)C)C(=O)N[C@@H](CN)C(=O)N[C@@H](C(=O)N[C@H](CC(C)C)C(=O)N[C@H](CC(C)C)C(=O)N[C@@H](CN)C(=O)N[C@H](C)C(=O)N[C@H](CC(C)C)C(=O)N[C@H](CO)C(=O)N[C@@H](CN)C(N)=O)[C@H](C)O)[C@H](C)O` [D105(Lys^1-6 Dap-1)] (Ac-[dK][dL][Dap][dS][dL][dL][Dap][dT][dL][dS][Dap][dA][dK][dA][dA][dK][dL][Dap][dT][dL][dL][Dap][dA][dL][dS][Dap]-NH2), the Tp in data set [1] was determined as 16.9 °C. Moreover, in the data set with human red blood cells, the HC50 fold improvement is reported as >287 and the HC50 was >3000 µg/mL. For the same compound, in data set [2], the “[θ]222, aqueous pH 7” value is recorded as 5961 mdeg cm^2/(dmol × res); the “[θ]222, 50% TFE” value is 24192 mdeg cm^2/(dmol × res); the “% helix induced” value amounted to 75%; the “% helix, aqueous pH 7” value was 25%.
